How the values were obtained:
[1] = target: T1, TIP48/TIP49 complex (Homo sapiens, UniProt Q9Y230+Q9Y265); assay: ATPase assay of TIP48/TIP49 complex (ADP-Glo); assay type: biochemical; conditions: concentration at which the ATPase activity was inhibited by 50%
T1 construct: made in house; host or cells: E. coli
Excerpt: The ATPase activity of the TIP48/TIP49 complex can be measured by use of an ATPase assay described below in Test Examples 1 and 2. The ATPase activity of the TIP48/TIP49 complex can be measured, as described below in the Test Examples, for example, by using recombinant human TIP48 and TIP49 proteins (hereinafter, referred to as rTIP48 and rTIP49) and ATP in the presence or absence of a test compound and measuring the amount of ADP formed through hydrolysis by the ATPase activity of the TIP48/TIP49 complex, using ADP-Glo. Alternatively, the ATPase activity of the TIP48/TIP49 complex can be measured by a method described in, for example, J. Mol. Biol. 366, 172-179 (2007).
An ATPase assay of a TIP48/TIP49 complex was conducted using rTIP48 and rTIP49. Human TIP48 and TIP49 DNAs were purchased from Open Biosystems. Human TIP48 and TIP49 cDNAs cloned by PCR using the purchased DNAs were each integrated into plasmids for expression in E. coli and expressed in E. coli to obtain rTIP48 and rTIP49.
A test compound was dissolved at 10 mM using DMSO. The solution was diluted to 10 concentrations as 4-fold serial dilutions from 10 mM using DMSO.
A 2×assay buffer (100 mM Tris-HCl, pH 7.5, 100 mM NaCl, 40 mM MgCl2, 2 mM DTT, 20 μM ATP, and 0.2 mg/mL BSA) was dispensed at 24.5 μL/well to a 384-well assay plate.
Test compound solutions were dispensed thereto at 1 μL/well. Subsequently, the solution in each well was mixed using a plate mixer.
rTIP48 and rTIP49 were diluted to a concentration of 50 μg/mL using sterilized water. The diluted solution was dispensed at 24.5 μL/well to the 384-well assay plate. Subsequently, the solution in each well was mixed using a plate mixer (final concentration: 24.5 μg/mL) (concentration of each test compound solution: 200 μM, 50 μM, 12.5 μM, 3.12 μM, 0.78 μM, 0.20 μM, 0.049 μM, 0.012 μM, 0.003 μM, and 0.0007 μM; DMSO concentration: 2%).
After the mixing using the plate mixer, the assay plate was left standing at room temperature for 1.5 hours.
5 μL of the solution in each well was transferred to a white assay plate, and ADP-Glo Reagent from ADP-Glo Kinase Assay (Promega Corp., catalog No. V9101) was dispensed thereto at 5 μL/well. After completion of the reaction, the plate was left standing at room temperature for 40 minutes. Kinase Detection Reagent was further dispensed thereto at 5 μL/well, and the plate was left standing at room temperature for 30 minutes. Then, luminescence intensity was measured using a plate reader.
The ATPase inhibitory activity was calculated according to the expression given below.
The luminescence intensity of a well supplemented with the test compound and the TIP48/TIP49 complex was defined as A. The luminescence intensity of a well supplemented with only the TIP48/TIP49 complex was defined as B. The luminescence intensity of a well supplemented with neither the test compound nor the TIP48/TIP49 complex was defined as C. The ratio between the test compound-supplemented group and the test compound-nonsupplemented group (T/C value) was determined according to the following calculation expression:
The dose-response curve was calculated using GraphPad Prism 4 from the concentration of each of the serially diluted test compounds and the ATPase inhibitory activity (%) at this concentration.

[2] = system: human lymphoma cell line RAMOS cells; assay: Cell growth inhibition test using RAMOS cell, ATP assay (CellTiter-Glo); assay type: cell-based; conditions: cultured 3 days, 50% growth inhibition concentration
Protocol: A cell growth inhibition test was carried out by treating human lymphoma cell line RAMOS cells with a test compound for a given period and then counting the number of viable cells by MTT assay or CellTiter-Glo Luminescent Cell Viability Assay (manufactured by Promega Corp.; hereinafter, referred to as ATP assay).
RAMOS cells were inoculated at 4000 cells/40 μL/well to a 384-well plate containing the compound prepared in advance at predetermined concentrations. The cells thus inoculated were cultured at 37° C. for 3 days under 5% CO2. In order to measure a cell survival rate, CellTiter-Glo Reagent was added in an amount corresponding to 1/4 of the amount of the culture solution at the day of cell inoculation and at the final culture date and stirred at room temperature for 2 minutes. Then, luminescence intensity was measured using a plate reader. The cell survival rate was calculated according to the expression given below.
The number of viable cells and luminescence intensity have been confirmed to correlate with each other. Therefore, the rate of cell growth was calculated according to the following expression: Rate of cell growth (T/C %) of a test compound-supplemented well=100×[(B−C)/(A−C)] wherein A represents the luminescence intensity (final culture date) of a test compound-free well; B represents the luminescence intensity (final culture date) of a test compound-containing well; and C represents the luminescence intensity (day of cell inoculation) of a well at the start of contact of the cells with the test compound.
T/C % at each concentration of the test compound was determined. The concentration at which the test compound offered 50% growth rate was calculated as a GI50 value from the growth rates at two points interpolating 50% and the concentrations, and is shown in Table 56.

T1 sequence (Q9Y230 whole entry): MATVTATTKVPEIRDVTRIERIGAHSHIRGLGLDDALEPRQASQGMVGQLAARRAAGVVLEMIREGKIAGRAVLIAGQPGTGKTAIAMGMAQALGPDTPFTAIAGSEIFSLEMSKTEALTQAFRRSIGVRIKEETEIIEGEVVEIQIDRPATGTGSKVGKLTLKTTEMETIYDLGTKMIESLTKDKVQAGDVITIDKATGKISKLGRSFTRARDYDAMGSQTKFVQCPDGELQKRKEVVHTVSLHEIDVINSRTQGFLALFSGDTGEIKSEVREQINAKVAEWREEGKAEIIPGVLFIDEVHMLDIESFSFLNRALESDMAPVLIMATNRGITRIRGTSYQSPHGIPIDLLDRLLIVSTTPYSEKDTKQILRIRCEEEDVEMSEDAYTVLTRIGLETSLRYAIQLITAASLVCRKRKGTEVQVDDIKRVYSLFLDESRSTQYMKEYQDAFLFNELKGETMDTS
T1 sequence (Q9Y265 whole entry): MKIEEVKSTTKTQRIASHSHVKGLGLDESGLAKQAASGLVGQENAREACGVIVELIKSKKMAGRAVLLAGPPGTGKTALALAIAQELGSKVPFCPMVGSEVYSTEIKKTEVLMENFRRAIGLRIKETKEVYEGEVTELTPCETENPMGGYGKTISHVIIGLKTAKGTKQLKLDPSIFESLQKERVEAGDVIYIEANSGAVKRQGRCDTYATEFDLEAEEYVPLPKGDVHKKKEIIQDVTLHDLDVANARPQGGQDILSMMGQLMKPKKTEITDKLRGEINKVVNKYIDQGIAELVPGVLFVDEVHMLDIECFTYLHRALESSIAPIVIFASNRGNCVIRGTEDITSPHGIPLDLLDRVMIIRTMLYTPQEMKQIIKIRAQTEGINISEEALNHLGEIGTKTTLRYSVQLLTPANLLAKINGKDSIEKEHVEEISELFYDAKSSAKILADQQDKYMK

Row | SMILES | IC50 [1] [nM] | GI50 ([2]; Homo sapiens, Ramos, 72 h) [nM] | GI50 [2] [nM]
1 | CCOc1ccc(Cl)cc1C(=O)NCC(C)(C)CC(=O)Nc1c(C(C)NC)n(C)n(-c2ccccc2)c1=O (stereo not drawn) [Example 1, 5-Chloro-N-[2,2-dimethyl-4-({1-methyl-5-[1-(methylamino)ethyl]-3-oxo-2-phenyl-2,3-dihydro-1H-pyrazol-4-yl}amino)-4-oxobutyl]-2-ethoxybenzamide] | 170 | 130 | 
2 | CCOc1ncc(Cl)cc1C(=O)NCC(C)(C)CC(=O)Nc1c(C(C)NC)n(C)n(-c2ccccc2)c1=O (stereo not drawn) [Example 2, 5-Chloro-N-[2,2-dimethyl-4-({1-methyl-5-[1-(methylamino)ethyl]-3-oxo-2-phenyl-2,3-dihydro-1H-pyrazol-4-yl}amino)-4-oxobutyl]-2-ethoxypyridine-3-carboxamide] | 160 | 250 | 
3 | COCc1cc2cc(Cl)cc(C(=O)NCC(C)(C)CC(=O)Nc3c(CCN(C)C)n(C)n(-c4ccccc4)c3=O)c2o1 [Example 15, 5-Chloro-N-[4-({5-[2-(dimethylamino)ethyl]-1-methyl-3-oxo-2-phenyl-2,3-dihydro-1H-pyrazol-4-yl}amino)-2,2-dimethyl-4-oxobutyl]-2-(methoxymethyl)benzofuran-7-carboxamide] | 76 | 570 | 
4 | CN(C)CCc1c(NC(=O)CC(C)(C)CNC(=O)c2cc(Cl)cc3c2OCCO3)c(=O)n(-c2ccccc2)n1C [Example 16, 7-Chloro-N-[4-({5-[2-(dimethylamino)ethyl]-1-methyl-3-oxo-2-phenyl-2,3-dihydro-1H-pyrazol-4-yl}amino)-2,2-dimethyl-4-oxobutyl]-2,3-dihydro-1,4-benzodioxine-5-carboxamide] | 68 | 570 | 
5 | CCOc1ccc(Cl)cc1C(=O)NCC(C)(C)CC(=O)Nc1c(CCNCC(F)(F)F)n(C)n(-c2ccccc2)c1=O [Example 26, 5-Chloro-N-[2,2-dimethyl-4-({1-methyl-3-oxo-2-phenyl-5-[2-(2,2,2-trifluoroethylamino)ethyl]pyrazol-4-yl}amino)-4-oxobutyl]-2-ethoxybenzamide] | 33 | 130 | 
6 | CCOc1cc(F)c(Cl)cc1C(=O)NCC(C)(C)CC(=O)Nc1c(CCNCC(F)(F)F)n(C)n(-c2ccccc2)c1=O [Example 27, 5-Chloro-N-[2,2-dimethyl-4-({1-methyl-3-oxo-2-phenyl-5-[2-(2,2,2-trifluoroethylamino)ethyl]-2,3-dihydro-1H-pyrazol-4-yl}amino)-4-oxobutyl]-2-ethoxy-4-fluorobenzamide] | 48 | 130 | 

More lines, now with the values ahead:

Row | IC50 [1] [nM] | GI50 ([2]; Homo sapiens, Ramos, 72 h) [nM] | GI50 [2] [nM] | SMILES
7 | 110 | 300 |  | CCOc1ncc(Cl)cc1C(=O)NCC(C)(C)CC(=O)Nc1c(C(C)NC)n(C)n(-c2ccccc2)c1=O (single isomer, unassigned) [Example 85, (+)-/(−)-5-Chloro-N-[2,2-dimethyl-4-({1-methyl-5-[1-(methylamino)ethyl]-3-oxo-2-phenyl-2,3-dihydro-1H-pyrazol-4-yl}amino)-4-oxobutyl]-2-ethoxypyridine-3-carboxamide]
8 | 65 |  | 490 | CCOc1ncc(Cl)cc1C(=O)NCC(C)(C)CC(=O)Nc1c(C(CN(C)C)OC)n(C)n(-c2ccccc2)c1=O (single isomer, unassigned; (+)) [Example 83, (+)-5-Chloro-N-[4-({5-[2-(dimethylamino)-1-methoxyethyl]-1-methyl-3-oxo-2-phenyl-2,3-dihydro-1H-pyrazol-4-yl}amino)-2,2-dimethyl-4-oxobutyl]-2-ethoxypyridine-3-carboxamide]
9 | 49 | 370 |  | CCOc1ncc(Cl)cc1C(=O)NCC(C)(C)CC(=O)Nc1c(C(CN(C)C)OC)n(C)n(-c2ccccc2)c1=O (single isomer, unassigned; (-)) [Example 82, (−)-5-Chloro-N-[4-({5-[2-(dimethylamino)-1-methoxyethyl]-1-methyl-3-oxo-2-phenyl-2,3-dihydro-1H-pyrazol-4-yl}amino)-2,2-dimethyl-4-oxobutyl]-2-ethoxypyridine-3-carboxamide]
10 | 90 |  | 180 | CCOc1ncc(Cl)cc1C(=O)NCC(C)(C)CC(=O)Nc1c(C(C)NC)n(C)n(-c2ccccc2)c1=O (single isomer, unassigned; (-)) [Example 86, (−)-5-Chloro-N-[2,2-dimethyl-4-({1-methyl-5-[1-(methylamino)ethyl]-3-oxo-2-phenyl-2,3-dihydro-1H-pyrazol-4-yl}amino)-4-oxobutyl]-2-ethoxypyridine-3-carboxamide]
11 | 48 | 200 |  | COCOc1ccc(Cl)cc1C(=O)NCC(C)(C)CC(=O)Nc1c(CCN(C)C)n(C)n(-c2ccccc2)c1=O [Example 28, 5-Chloro-N-[4-({5-[2-(dimethylamino)ethyl]1-methyl-3-oxo-2-phenyl-2,3-dihydro-1H-pyrazol-4-yl}amino)-2,2-dimethyl-4-oxobutyl]-2-(methoxymethoxy)benzamide]
12 | 48 | 150 |  | COCOc1cc(F)c(Cl)cc1C(=O)NCC(C)(C)CC(=O)Nc1c(CCN(C)C)n(C)n(-c2ccccc2)c1=O [Example 29, 5-Chloro-N-[4-({5-[2-(dimethylamino)ethyl]1-methyl-3-oxo-2-phenyl-2,3-dihydro-1H-pyrazol-4-yl}amino)-2,2-dimethyl-4-oxobutyl]-4-fluoro-2-(methoxymethoxy)benzamide]
13 | 94 | 480 |  | CCOc1ncc(Br)cc1C(=O)NCC(C)(C)CC(=O)Nc1c(CCN(C)C)n(C)n(-c2ccccc2)c1=O [Example 30, 5-Bromo-N-[4-({5-[2-(dimethylamino)ethyl]1-methyl-3-oxo-2-phenyl-2,3-dihydro-1H-pyrazol-4-yl}amino)-2,2-dimethyl-4-oxobutyl]-2-ethoxypyridine-3-carboxamide]
14 | 52 | 170 |  | [2H]C([2H])([2H])N(CCc1c(NC(=O)CC(C)(C)CNC(=O)c2cc(Cl)ccc2OCC)c(=O)n(-c2ccccc2)n1C)C([2H])([2H])[2H] [Example 31, N-{4-[(5-{2-[bis(trideuteriomethyl)amino]ethyl}-1-methyl-3-oxo-2-phenyl-2,3-dihydro-1H-pyrazol-4-yl)amino]-2,2-dimethyl-4-oxobutyl}-5-chloro-2-ethoxybenzamide]
15 | 130 | 1300 |  | CCOc1ccc(Cl)cc1NC(=O)CC1(CC(=O)Nc2c(CCN(C)C)n(C)n(-c3ccccc3)c2=O)CCCC1 [Example 32, N-(5-chloro-2-ethoxyphenyl)-2-{1-[2-({5-[2-(dimethylamino)ethyl]-1-methyl-3-oxo-2-phenyl-2,3-dihydro-1H-pyrazol-4-yl}amino)-2-oxoethyl]cyclopentyl}acetamide]

Source: patent US20170107207A1, “AMINOPYRAZOLONE DERIVATIVE” (DAIICHI SANKYO COMPANY, LIMITED, priority 2014, published 2017)
